Experimental data taken from PubChem BioAssay AID977614 (Broad Institute, 2014).
The source made the active and inactive calls.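 How the source made its calls: active means parasite count per well reduced by over 3 SD from the mean, with host cell number above 80% of untreated; inactive means the rest.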

Tested on: L. donovani amastigotes in THP-1 macrophages, DAPI imaging, 72 h
Assay: antileishmanial activity in infected macrophages – imaging, THP-1 host macrophages, single concentration (AID 977614);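 further: signal is the parasite per host cell ratio from DAPI stained kinetoplasts and nuclei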

Compound	AC50
CCCN1[C@H](CO)[C@H](c2ccc(C#CC(C)C)cc2)[C@@H]1CN(C)S(C)(=O)=O	> 10 µM (inactive)
CCC(=O)N1[C@@H](CO)[C@@H]2c3ccccc3N(C(=O)Nc3ccc(Cl)cc3)C[C@@H]21	> 10 µM (inactive)
CC(=O)N1[C@H](CO)[C@@H](c2ccc(C3=CCCCC3)cc2)[C@@H]1CNC(=O)CN(C)C	> 10 µM (inactive)
CCCNC[C@H]1[C@@H](c2ccc(C3=CCCCC3)cc2)[C@@H](CO)N1C(=O)C1CCC1	> 10 µM (inactive)
CCC(=O)N1C[C@@H]2[C@H](c3ccccc31)[C@H](CO)N2Cc1ccc(F)cc1	> 10 µM (inactive)
COc1ccc(CN(C)C[C@@H]2OCc3cnnn3CCCC(=O)N([C@@H](C)CO)C[C@@H]2C)cc1	> 10 µM (inactive)
OC[C@H]1[C@@H]2c3ccccc3NC[C@@H]2N1CC1CCOCC1	> 10 µM (inactive)
C[C@@H]1CN([C@@H](C)CO)C(=O)CCCn2cc(nn2)CO[C@@H]1CN(C)S(=O)(=O)c1ccc(-n2cccn2)cc1	> 10 µM (inactive)
O=C(C1CCC1)N1C[C@H]2[C@@H](c3ccccc31)[C@H](CO)N2C(=O)Nc1cccc(F)c1	> 10 µM (inactive)
CCCN1[C@H](CO)[C@H](c2ccc(C3=CCCC3)cc2)[C@H]1CNC(=O)NC(C)C	> 10 µM (inactive)
CCN(C[C@@H]1[C@H](c2ccccc2)[C@H](CO)N1C(=O)COC)S(C)(=O)=O	> 10 µM (inactive)
O=C(CN1CCOCC1)NC[C@H]1N[C@H](CO)[C@@H]1c1ccc(-c2ccccc2)cc1	> 10 µM (inactive)
C[C@@H]1CN([C@H](C)CO)C(=O)CCCn2nncc2CO[C@@H]1CN(C)S(=O)(=O)c1ccccc1C#N	> 10 µM (inactive)
C[C@H](CO)N1C[C@H](C)[C@@H](CN(C)C(=O)Oc2cccc3ccccc23)OCc2cnnn2CCCC1=O	> 10 µM (inactive)
C[C@@H]1CN([C@H](C)CO)C(=O)CCCn2nncc2CO[C@H]1CN(C)C(=O)CCC(F)(F)F	> 10 µM (inactive)
CN1[C@H](CO)[C@@H]2c3ccccc3N(C(=O)C3CCCCC3)C[C@@H]21	> 10 µM (inactive)
COCC(=O)N1C[C@H]2[C@@H](c3ccccc31)[C@H](CO)N2C(=O)c1ccccc1F	> 10 µM (inactive)
C[C@@H]1CN([C@H](C)CO)C(=O)CCCn2nncc2CO[C@@H]1CN(C)C(=O)Nc1ccnc(N2CCOCC2)c1	> 10 µM (inactive)
C[C@H](CO)N1C[C@H](C)[C@@H](CN(C)S(=O)(=O)c2ccccc2C#N)OCc2cnnn2CCCC1=O	> 10 µM (inactive)
C[C@H](CO)N1C[C@H](C)[C@H](CN(C)C(=O)Oc2ccc3ccccc3c2)OCc2cn(nn2)CCCC1=O	> 10 µM (inactive)
Cc1noc(C)c1S(=O)(=O)N(C)C[C@H]1OCc2cn(nn2)CCCC(=O)N([C@@H](C)CO)C[C@H]1C	> 10 µM (inactive)
Cc1noc(C)c1S(=O)(=O)N(C)C[C@@H]1OCc2cnnn2CCCC(=O)N([C@@H](C)CO)C[C@@H]1C	> 10 µM (inactive)
C[C@H]1CN([C@@H](C)CO)C(=O)CCCn2nncc2CO[C@@H]1CN(C)C(=O)CCC(F)(F)F	> 10 µM (inactive)
C[C@@H]1CN([C@@H](C)CO)C(=O)CCCn2cc(nn2)CO[C@@H]1CN(C)C(=O)Nc1ccc2c(c1)OCO2	> 10 µM (inactive)
OC[C@@H]1[C@H]2c3ccccc3NC[C@H]2N1Cc1cccnc1	> 10 µM (inactive)
Cc1ccc(S(=O)(=O)N2C[C@H]3[C@@H](c4ccccc42)[C@@H](CO)N3Cc2cccnc2)cc1	> 10 µM (inactive)

Compound	AC50
C[C@@H]1CN([C@@H](C)CO)C(=O)CCCn2nncc2CO[C@H]1CN(C)Cc1ccccc1C(=O)O	> 10 µM (inactive)
CC(C)N(C[C@@H]1N[C@@H](CO)[C@@H]1c1ccccc1)S(=O)(=O)c1ccccc1	> 10 µM (inactive)
C[C@@H]1CN([C@@H](C)CO)C(=O)CCCn2cc(nn2)CO[C@@H]1CN(C)C(=O)Nc1cccc(C(F)(F)F)c1	> 10 µM (inactive)
CCC(=O)N1[C@H](CO)[C@H](c2ccc(-c3cncnc3)cc2)[C@@H]1CN(C)C(C)=O	> 10 µM (inactive)
CC(C)NC(=O)N1[C@@H](CO)[C@@H]2c3ccccc3N(C)C[C@@H]21	> 10 µM (inactive)
CN1C[C@H]2[C@@H](c3ccccc31)[C@H](CO)N2Cc1ccccc1Cl	> 10 µM (inactive)
O=C(Nc1ccccc1F)N1C[C@@H]2[C@H](c3ccccc31)[C@H](CO)N2C(=O)Cc1cccnc1	> 10 µM (inactive)
C[C@H]1CN([C@@H](C)CO)C(=O)CCCn2nncc2CO[C@H]1CN(C)C(=O)CCC(F)(F)F	> 10 µM (inactive)
OC[C@H]1N[C@@H](CNCC2CCC2)[C@@H]1c1ccc(C2=CCCCC2)cc1	> 10 µM (inactive)
CCN(C[C@H]1[C@H](c2ccccc2)[C@@H](CO)N1CC1CC1)C(=O)c1ccccn1	> 10 µM (inactive)
COc1ccccc1C(=O)N1C[C@H]2[C@@H](c3ccccc31)[C@@H](CO)N2C(=O)Cc1ccccc1	> 10 µM (inactive)
O=C(C1CC1)N1C[C@@H]2[C@H](c3ccccc31)[C@@H](CO)N2C(=O)c1ccccc1	> 10 µM (inactive)
Cc1noc(C)c1NC(=O)N(C)C[C@H]1OCc2cnnn2CCCC(=O)N([C@@H](C)CO)C[C@H]1C	> 10 µM (inactive)
C[C@@H]1CN([C@@H](C)CO)C(=O)CCCn2nncc2CO[C@@H]1CN(C)C(=O)Nc1ccc(-c2cccs2)cc1	> 10 µM (inactive)
CC(C)NC(=O)N1[C@@H](CO)[C@@H]2c3ccccc3NC[C@@H]21	> 10 µM (inactive)
CC(=O)N1[C@H](CO)[C@@H](c2ccccc2)[C@H]1CN(CC(C)C)C(=O)c1ccccn1	> 10 µM (inactive)
Cc1noc(C)c1NC(=O)N(C)C[C@@H]1OCc2cn(nn2)CCCC(=O)N([C@@H](C)CO)C[C@@H]1C	> 10 µM (inactive)
Cc1noc(C)c1NC(=O)N(C)C[C@H]1OCc2cnnn2CCCC(=O)N([C@H](C)CO)C[C@H]1C	> 10 µM (inactive)
CCCC#Cc1ccc([C@H]2[C@@H](CO)N(C(=O)NC(C)C)[C@H]2CNC(C)=O)cc1	> 10 µM (inactive)
O=S(=O)(NC[C@@H]1[C@H](c2ccccc2)[C@@H](CO)N1CC1CC1)c1ccccc1	> 10 µM (inactive)
COCC(=O)N(C)C[C@H]1[C@H](c2ccccc2)[C@H](CO)N1C(=O)Cc1ccncc1	> 10 µM (inactive)
COc1ccccc1S(=O)(=O)N(C)C[C@@H]1OCc2cn(nn2)CCCC(=O)N([C@@H](C)CO)C[C@H]1C	> 10 µM (inactive)
CN1[C@@H]2CN(C(=O)C3CCCCC3)c3ccccc3[C@@H]2[C@@H]1CO	> 10 µM (inactive)
C[C@H](CO)N1C[C@H](C)[C@H](CN(C)Cc2cccc3c2OCCCO3)OCc2cnnn2CCCC1=O	> 10 µM (inactive)
C[C@@H]1CN([C@H](C)CO)C(=O)CCCn2cc(nn2)CO[C@@H]1CN(C)Cc1ccccc1	> 10 µM (inactive)
COc1ccc(NC(=O)N(C)C[C@H]2OCc3cnnn3CCCC(=O)N([C@H](C)CO)C[C@H]2C)c(OC)c1	> 10 µM (inactive)

Compound	AC50
CN(C[C@H]1[C@H](c2ccccc2)[C@H](CO)N1Cc1ccccn1)S(C)(=O)=O	> 10 µM (inactive)
C[C@@H]1CN([C@@H](C)CO)C(=O)CCCn2cc(nn2)CO[C@@H]1CN(C)C(=O)Oc1ccc2ccccc2c1	> 10 µM (inactive)
C[C@H]1CN([C@@H](C)CO)C(=O)CCCn2nncc2CO[C@H]1CN(C)Cc1ccc2c(c1)OCCN2C	> 10 µM (inactive)
COCC(=O)N1[C@H](CNC(=O)c2ccccn2)[C@H](c2ccccc2)[C@@H]1CO	> 10 µM (inactive)
O=C(Nc1ccccc1F)N1C[C@H]2[C@@H](c3ccccc31)[C@H](CO)N2C(=O)Cc1cccnc1	> 10 µM (inactive)
O=C(CC1CC1)N1[C@@H]2CN(S(=O)(=O)c3ccccc3F)c3ccccc3[C@@H]2[C@@H]1CO	> 10 µM (inactive)
CC(=O)N1[C@H](CNC(=O)CN(C)C)[C@@H](c2ccc(C3=CCCCC3)cc2)[C@@H]1CO	> 10 µM (inactive)
CC(=O)NC[C@H]1[C@H](c2ccc(C3=CCCC3)cc2)[C@@H](CO)N1Cc1cccnc1	> 10 µM (inactive)
COc1cccc(C(=O)N2C[C@@H]3[C@H](c4ccccc42)[C@@H](CO)N3C(=O)c2cccc(F)c2)c1	> 10 µM (inactive)
COc1ccc(CN2[C@H](CO)[C@H]3c4ccccc4NC[C@H]32)cc1	> 10 µM (inactive)
C[C@@H]1CN([C@H](C)CO)C(=O)CCCn2cc(nn2)CO[C@@H]1CN(C)C(=O)NC1CCCCC1	> 10 µM (inactive)
CCCNC(=O)N1C[C@H]2[C@@H](c3ccccc31)[C@@H](CO)N2C(=O)Nc1ccccc1F	> 10 µM (inactive)
COCC(=O)N1C[C@@H]2[C@H](c3ccccc31)[C@H](CO)N2Cc1cc(F)ccc1F	> 10 µM (inactive)
CC(C)NC(=O)N1[C@H](CO)[C@H]2c3ccccc3N(C)C[C@H]21	> 10 µM (inactive)
OC[C@@H]1[C@H](c2ccc(-c3ccc(F)cc3)cc2)[C@@H](CNC2CCCC2)N1CCC(F)(F)F	> 10 µM (inactive)
C/C=C/c1ccc([C@@H]2[C@@H](CO)N(C(C)=O)[C@@H]2CNC(=O)c2ccccc2)cc1	> 10 µM (inactive)
C[C@H](CO)N1C[C@H](C)[C@H](CN(C)Cc2ccc3c(c2)OCCN3C)OCc2cnnn2CCCC1=O	> 10 µM (inactive)
O=C(Nc1ccccc1Cl)N1C[C@H]2[C@@H](c3ccccc31)[C@H](CO)N2C(=O)c1cccnc1	> 10 µM (inactive)
C[C@@H]1CN([C@H](C)CO)C(=O)CCCn2nncc2CO[C@H]1CN(C)CC1CCCCC1	> 10 µM (inactive)
CCC(=O)N1C[C@H]2[C@@H](c3ccccc31)[C@@H](CO)N2C(=O)CC1CC1	> 10 µM (inactive)
O=C(c1ccccn1)N1C[C@@H]2[C@H](c3ccccc31)[C@@H](CO)N2C(=O)C1CCCCC1	> 10 µM (inactive)
COc1ccc(NC(=O)N2C[C@H]3[C@@H](c4ccccc42)[C@H](CO)N3Cc2ccccn2)cc1	> 10 µM (inactive)
Cc1noc(C)c1NC(=O)N(C)C[C@H]1OCc2cnnn2CCCC(=O)N([C@H](C)CO)C[C@@H]1C	> 10 µM (inactive)
C[C@H]1CN([C@@H](C)CO)C(=O)CCCn2nncc2CO[C@@H]1CN(C)Cc1cccc2c1OCCCO2	> 10 µM (inactive)
COc1cccc(NC(=O)N2[C@H](CO)[C@H](c3ccccc3)[C@H]2CNCC(C)C)c1	> 10 µM (inactive)
